Measurements taken from patent publication US20130184222A1, “[…] ACTIVE COMPOSITIONS AND THEIR METHODS OF USE” (AGIOS PHARMACEUTICALS, INC, priority 2010, published 2013).

The molecules below were run against IDH1 R132H (Homo sapiens, UniProt O75874, R132H) (assay: In vitro assay for IDH1 R132H inhibitors (NADPH/aKG, resazurin detection)). Conditions: Table 4A; 0.2 μg/ml IDH1 R132H, 50 minutes at room temperature; read-out: IC50 (uM), IDH1 R132H Inhibition.
Format: biochemical
Experimental: Assays were conducted in a volume of 76 μl assay buffer (150 mM NaCl, 10 mM MgCl2, 20 mM Tris pH 7.5, 0.03% bovine serum albumin) as follows in a standard 384-well plate: To 25 ul of substrate mix (8 uM NADPH, 2 mM aKG), 1 μl of test compound was added in DMSO. The plate was centrifuged briefly, and then 25 μl of enzyme mix was added (0.2 μg/ml IDH1 R132H) followed by a brief centrifugation and shake at 100 RPM. The reaction was incubated for 50 minutes at room temperature, then 25 μl of detection mix (30 μM resazurin, […]) was added and the mixture further incubated for 5 minutes at room temperature. The conversion of resazurin to resorufin was detected by fluorescent spectroscopy at Ex544 Em590 c/o 590.
The compounds of Formula I set forth in Table 1 and the compounds set forth in Table 2 were tested in this assay and the results set forth below in Table 4A and 4B.

IDH1 R132H, sequence (O75874 whole entry R132H): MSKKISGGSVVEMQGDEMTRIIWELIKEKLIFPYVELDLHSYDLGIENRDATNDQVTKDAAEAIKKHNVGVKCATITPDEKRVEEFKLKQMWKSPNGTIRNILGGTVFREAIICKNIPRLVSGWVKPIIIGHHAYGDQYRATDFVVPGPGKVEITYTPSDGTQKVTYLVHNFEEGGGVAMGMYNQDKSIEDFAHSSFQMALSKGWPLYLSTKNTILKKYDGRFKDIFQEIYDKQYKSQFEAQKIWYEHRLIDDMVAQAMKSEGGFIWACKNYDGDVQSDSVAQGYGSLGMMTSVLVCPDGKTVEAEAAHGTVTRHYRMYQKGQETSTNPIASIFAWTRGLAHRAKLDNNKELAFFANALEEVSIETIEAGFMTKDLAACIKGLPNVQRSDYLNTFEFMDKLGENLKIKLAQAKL

SMILES | IC50
Cc1ccc(N(C(=O)c2ccccn2)C(C(=O)NC2CCCCC2)c2ccccc2)cc1F (stereo not drawn) [Compound 7] | 1 to 10 µM
Cc1ccc(N(C(=O)c2sc(C)nc2C)C(C(=O)NC2CCCC2)c2ccccc2)cc1 (stereo not drawn) [Compound 9] | 1 to 10 µM
CC(C)(C)NC(=O)C(c1ccccc1)N(C(=O)Cc1cccs1)c1ccccc1 (stereo not drawn) [Compound 11] | 1 to 10 µM
CC(C(=O)NCc1ccccc1)(c1cccc(F)c1)N(C(=O)Cc1cccs1)c1ccccc1 (stereo not drawn) [Compound 12] | 10 to 100 µM
Cc1ccccc1N(C(=O)Cc1cccs1)C(C(=O)NC(C)(C)C)c1cccc(F)c1 (stereo not drawn) [Compound 14] | 10 to 100 µM
CC(C)C(C(=O)NC1CCCC1)N(C(=O)Cc1cccs1)c1cccc(F)c1 (stereo not drawn) [Compound 16] | ≥ 100 µM
CCC(C(=O)NC1CCCC1)N(C(=O)Cc1cccs1)c1cccc(F)c1 (stereo not drawn) [Compound 18] | ≥ 100 µM
COc1ccc(C(C(=O)NC2CCCC2)N(C(=O)Cc2cccs2)c2cccc(F)c2)cc1OC (stereo not drawn) [Compound 19] | ≥ 100 µM
O=C(NC1CCCC1)C(c1cccc([N+](=O)[O-])c1)N(C(=O)Cc1cccs1)c1cccc(F)c1 (stereo not drawn) [Compound 20] | ≥ 100 µM
CC(C)(C(=O)NC1CCCC1)N(C(=O)Cc1cccs1)c1cccc(F)c1 [Compound 21] | ≥ 100 µM
O=C(Cc1cccs1)N(c1cccc(F)c1)C1(C(=O)NC2CCCC2)CCC1 [Compound 22] | ≥ 100 µM
O=C(Cc1cccs1)N(c1cccc(F)c1)C1(C(=O)NC2CCCC2)CCCC1 [Compound 23] | 10 to 100 µM
O=C(Cc1cccs1)N(c1cccc(F)c1)C1(C(=O)NC2CCCC2)CCCCC1 [Compound 24] | 1 to 10 µM
N#Cc1ccc(C(C(=O)NC2CCCC2)N(C(=O)Cc2cccs2)c2cccc(F)c2)cc1 (stereo not drawn) [Compound 25] | ≥ 100 µM
O=C(NC1CCCC1)C(c1ccc(C(F)(F)F)cc1)N(C(=O)Cc1cccs1)c1cccc(F)c1 (stereo not drawn) [Compound 27] | ≥ 100 µM
Cc1ccccc1C(C(=O)NC1CCCCC1)N(C(=O)c1ccccn1)c1cccc(F)c1 (stereo not drawn) [Compound 32] | 1 to 10 µM
O=C(NC1CCCCC1)C(c1ccccc1F)N(Cc1cccs1)C(=O)c1ccccn1 (stereo not drawn) [Compound 37] | 10 to 100 µM
O=C(NC1CCCCC1)C(c1ccccc1F)N(Cc1cccs1)C(=O)Cc1cccs1 (stereo not drawn) [Compound 38] | 1 to 10 µM
Cc1ccccc1C(C(=O)NC1CCCCC1)N(C)C(=O)Cc1cccs1 (stereo not drawn) [Compound 40] | ≥ 100 µM
Cc1ccccc1C(C(=O)NC1CCCCC1)N(C(=O)Cc1cccs1)C(C)C (stereo not drawn) [Compound 41] | 10 to 100 µM
Cc1ccccc1C(C(=O)NC1CCCCC1)N(C(=O)Cc1cccs1)c1ccccc1 (stereo not drawn) [Compound 42] | 0.1 to 1 µM
O=C(NC1CCCC1)C(c1ccccc1F)N(C(=O)Cc1cccs1)c1cccc(F)c1 (stereo not drawn) [Compound 43] | 0.1 to 1 µM
O=C(NC1CCCC1)C(c1ccccc1)N(C(=O)Cc1cccs1)c1cccc(F)c1 (stereo not drawn) [Compound 45] | 0.1 to 1 µM
Cc1ccccc1C(C(=O)NC1CCCC1)N(C(=O)Cc1cccs1)c1ccccc1F (stereo not drawn) [Compound 46] | 0.1 to 1 µM
O=C(NC1CCCC1)C(c1ccccc1F)N(C(=O)Cc1cccs1)c1ccccc1F (stereo not drawn) [Compound 47] | 0.1 to 1 µM
O=C(NC1CCCC1)C(c1ccccc1)N(C(=O)Cc1cccs1)c1ccccc1F (stereo not drawn) [Compound 48] | 0.1 to 1 µM

SMILES | IC50
COc1cccc(C(C(=O)NC2CCCCC2)N(C(=O)Cc2cccs2)c2cccc(F)c2)c1 (stereo not drawn) [Compound 49] | 0.1 to 1 µM
O=C(NC1CCCCC1)C(c1ccc(F)cc1)N(C(=O)Cc1cccs1)c1cccc(F)c1 (stereo not drawn) [Compound 50] | 0.1 to 1 µM
Cc1ccsc1C(C(=O)NC1CCCCC1)N(C(=O)Cc1cccs1)c1cccc(F)c1 (stereo not drawn) [Compound 51] | 0.1 to 1 µM
CCOc1cc(C(C(=O)NC2CCCCC2)N(C(=O)Cc2cccs2)c2cccc(F)c2)ccc1OC (stereo not drawn) [Compound 52] | ≥ 100 µM
Cc1ccccc1[C@H](C(=O)NC1CCCCC1)N(C(=O)Cc1cccs1)c1cccc(F)c1 [Compound 53] | 1 to 10 µM
O=C(NC1CCCCC1)C(c1ccccc1)N(C(=O)c1ccccn1)c1cccc(F)c1 (stereo not drawn) [Compound 55] | 1 to 10 µM
O=C(NC1CCCCC1)C(c1ccccc1Cl)N(C(=O)c1ccccn1)c1cccc(F)c1 (stereo not drawn) [Compound 56] | 0.1 to 1 µM
O=C(NC1CCCCC1)C(c1ccccc1Cl)N(C(=O)c1ccccn1)c1ccccc1F (stereo not drawn) [Compound 57] | 1 to 10 µM
O=C(NC1CCCCC1)C(c1ccccc1)N(C(=O)c1ccccn1)c1ccccc1F (stereo not drawn) [Compound 58] | 1 to 10 µM
Cc1ccccc1C(C(=O)NC1CCCCC1)N(C(=O)c1ccccn1)c1ccccc1F (stereo not drawn) [Compound 59] | 1 to 10 µM
O=C(NC1CCCCC1)C(c1ccccc1F)N(C(=O)c1ccccn1)c1ccccc1F (stereo not drawn) [Compound 60] | 0.1 to 1 µM
O=C(NC1CCCCC1)C(C1CCCC1)N(C(=O)Cc1cccs1)c1cccc(F)c1 (stereo not drawn) [Compound 61] | 1 to 10 µM
O=C(NC1CCCCC1)C(c1ccccc1[N+](=O)[O-])N(C(=O)Cc1cccs1)c1cccc(F)c1 (stereo not drawn) [Compound 62] | 0.1 to 1 µM
O=C(NC1CCCCC1)C(C1CCCCC1)N(C(=O)Cc1cccs1)c1cccc(F)c1 (stereo not drawn) [Compound 63] | 1 to 10 µM
CCOc1ccccc1C(C(=O)NC1CCCCC1)N(C(=O)Cc1cccs1)c1cccc(F)c1 (stereo not drawn) [Compound 64] | 1 to 10 µM
CCc1ccccc1C(C(=O)NC1CCCCC1)N(C(=O)Cc1cccs1)c1cccc(F)c1 (stereo not drawn) [Compound 65] | 0.1 to 1 µM
O=C(NC1CCCCC1)C(c1ccc(-c2ccccc2)cc1)N(C(=O)Cc1cccs1)c1cccc(F)c1 (stereo not drawn) [Compound 66] | ≥ 100 µM
O=C(NC1CCCCC1)C(c1ccccc1O)N(C(=O)Cc1cccs1)c1cccc(F)c1 (stereo not drawn) [Compound 67] | 0.1 to 1 µM
O=C(NC1CCCCC1)C(c1ccc(Br)cc1)N(C(=O)Cc1cccs1)c1cccc(F)c1 (stereo not drawn) [Compound 68] | ≥ 100 µM
Cc1ccccc1C(C(=O)NC1CCCCC1)N(C(=O)Cc1cccs1)C(C)(C)C (stereo not drawn) [Compound 69] | ≥ 100 µM
Cc1ccccc1C(C(=O)NC1CCCCC1)N(C(=O)Cc1cccs1)C1CCCC1 (stereo not drawn) [Compound 70] | 1 to 10 µM
Cc1ccccc1C(C(=O)NC1CCCCC1)N(Cc1ccccc1)C(=O)Cc1cccs1 (stereo not drawn) [Compound 71] | 1 to 10 µM
Cc1ccccc1C(C(=O)NC1CCCC1)N(C(=O)c1ccccn1)c1cccc(F)c1 (stereo not drawn) [Compound 72] | 1 to 10 µM
Cc1ccccc1C(C(=O)NC1CCCCC1)N(C(=O)Cc1cccs1)c1ccc(Br)c(Cl)c1 (stereo not drawn) [Compound 73] | 0.1 to 1 µM
O=C(Cc1cccs1)N(c1cccc(F)c1)C1(C(=O)NC2CCCC2)CCCCCC1 [Compound 74] | 1 to 10 µM
Cc1ccccc1C(C(=O)NC1CCCC1)N(C(=O)CCl)c1ccccc1F (stereo not drawn) [Compound 75] | 1 to 10 µM

The remaining lines, values ahead:

IC50 | SMILES
≤ 0.1 µM | Cc1ccccc1[C@@H](C(=O)NC1CCCCC1)N(C(=O)Cc1cccs1)c1cccc(F)c1 (single isomer, unassigned) [Compound 54]
0.1 to 1 µM | COc1cccc(N(C(=O)Cc2cccs2)C(C(=O)NC2CCCC2)c2ccccc2)c1 (stereo not drawn) [Compound 1]
0.1 to 1 µM | O=C(NC1CCCC1)C(c1ccccc1Cl)N(C(=O)Cc1cccs1)c1ccccc1F (stereo not drawn) [Compound 2]
0.1 to 1 µM | COc1cccc(N(C(=O)Cc2cccs2)C(C(=O)NC2CCCC2)c2ccccc2Cl)c1 (stereo not drawn) [Compound 3]
0.1 to 1 µM | O=C(NC1CCCCC1)C(c1ccccc1Cl)N(C(=O)c1ccccn1)c1ccccc1 (stereo not drawn) [Compound 4]
0.1 to 1 µM | Cc1ccccc1C(C(=O)NC1CCCC1)N(C(=O)Cn1nnc2ccccc21)c1ccccc1F (stereo not drawn) [Compound 5]
0.1 to 1 µM | O=C(NC1CCCC1)C(c1ccccc1F)N(C(=O)Cc1cccs1)c1ccc2c(c1)OCO2 (stereo not drawn) [Compound 6]
≤ 0.1 µM | Cc1ccccc1C(C(=O)NC1CCCC1)N(C(=O)Cc1cccs1)c1cccc(F)c1 (stereo not drawn) [Compound 8]
0.1 to 1 µM | O=C(NC1CCCCC1)C(c1ccccc1F)N(C(=O)CNS(=O)(=O)c1ccccc1)c1ccccc1F (stereo not drawn) [Compound 10]
0.1 to 1 µM | Cc1ccccc1N(C(=O)Cc1cccs1)C(C(=O)NC1CCCCC1)c1cccc(F)c1 (stereo not drawn) [Compound 13]
≤ 0.1 µM | Cc1ccccc1C(C(=O)NC1CCCCC1)N(C(=O)Cc1cccs1)c1cccc(F)c1 (stereo not drawn) [Compound 15]
0.1 to 1 µM | O=C(NC1CCCC1)C(c1ccccc1)N(C(=O)Cc1cccs1)c1ccccc1 (stereo not drawn) [Compound 17]
0.1 to 1 µM | COc1ccccc1C(C(=O)NC1CCCC1)N(C(=O)Cc1cccs1)c1cccc(F)c1 (stereo not drawn) [Compound 26]
0.1 to 1 µM | Cc1ccccc1C(C(=O)NC1CCCC1)N(C(=O)CNS(=O)(=O)c1ccccc1)c1cccc(F)c1 (stereo not drawn) [Compound 28]
0.1 to 1 µM | Cc1ccccc1C(C(=O)NC1CCCCC1)N(C(=O)CNS(=O)(=O)c1ccccc1)c1cccc(F)c1 (stereo not drawn) [Compound 29]
0.1 to 1 µM | O=C(NC1CCCCC1)C(c1ccccc1)N(C(=O)Cc1cccs1)c1cccc(F)c1 (stereo not drawn) [Compound 30]
≤ 0.1 µM | O=C(NC1CCCCC1)C(c1ccccc1Cl)N(C(=O)Cc1cccs1)c1cccc(F)c1 (stereo not drawn) [Compound 31]
0.1 to 1 µM | O=C(NC1CCCCC1)C(c1ccccc1F)N(C(=O)c1ccccn1)c1cccc(F)c1 (stereo not drawn) [Compound 33]
≤ 0.1 µM | O=C(NC1CCCCC1)C(c1ccccc1F)N(C(=O)Cc1cccs1)c1cccc(F)c1 (stereo not drawn) [Compound 34]
0.1 to 1 µM | O=C(NC1CCCCC1)C(c1ccccc1Cl)N(C(=O)Cc1cccs1)c1ccccc1F (stereo not drawn) [Compound 35]
0.1 to 1 µM | O=C(NC1CCCCC1)C(c1ccccc1)N(C(=O)Cc1cccs1)c1ccccc1F (stereo not drawn) [Compound 36]
0.1 to 1 µM | Cc1ccccc1C(C(=O)NC1CCCCC1)N(C(=O)Cc1cccs1)c1ccccc1F (stereo not drawn) [Compound 39]
≤ 0.1 µM | O=C(NC1CCCC1)C(c1ccccc1Cl)N(C(=O)Cc1cccs1)c1cccc(F)c1 (stereo not drawn) [Compound 44]
